Measurements from US12404232B2, “Compounds and compositions for intracellular delivery of therapeutic agents” (ModernaTX, Inc., priority 2015, dated 2025).

Legend:
Cynomolgus monkeys = test: Anti-HA (anti-hemagglutinin) antibody expression in Cynomolgus monkeys after intravenous infusion; type: in vivo; conditions: i.v. infusion 60 minutes
Experimental: Results of hEPO expression studies were validated using a standard MC3 formulation and a nanoparticle composition containing Compound 18 including an mRNA encoding an anti-hemagglutinin (anti-HA) antibody. Cynomolgus monkeys were administered a single dose of 0.1 mpk or 0.3 mpk of a nanoparticle composition containing Compound 18 (see Table 33; prepared according to Example 2) including an mRNA encoding anti-HA antibody via intravenous infusion for 60 minutes.

[1] = Particle size and polydispersity index of nanoparticle compositions (Zetasizer Nano ZS); type: physicochemical
How it was run: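 Formulations at 50:10:38.5:1.5 mol % (ionizable lipid, DSPC, cholesterol, PEG-DMG) encapsulating Luc or hEPO mRNA were measured in 1×PBS on a Zetasizer Nano ZS to give size and polydispersity index.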

[2] = Encapsulation of RNA by the nanoparticle composition (QUANT-IT RIBOGREEN RNA assay); type: physicochemical
From the text: The efficiency of encapsulation of a therapeutic and/or prophylactic describes the amount of therapeutic and/or prophylactic that is encapsulated or otherwise associated with a nanoparticle composition after preparation, relative to the initial amount provided. The encapsulation efficiency is desirably high (e.g., close to 100%). The encapsulation efficiency may be measured, for example, by comparing the amount of therapeutic and/or prophylactic in a solution containing the nanoparticle composition before and after breaking up the nanoparticle composition with one or more organic solvents or detergents. Fluorescence may be used to measure the amount of free therapeutic and/or prophylactic (e.g., RNA) in a solution. For the nanoparticle compositions described herein, the encapsulation efficiency of a therapeutic and/or prophylactic may be at least 50%, for example 50%, 55%, 60%, 65%, 70%, 75%, 80%, 85%, 90%, 91%, 92%, 93%, 94%, 95%, 96%, 97%, 98%, 99%, or 100%. In some embodiments, the encapsulation efficiency may be at least 80%. In certain embodiments, the encapsulation efficiency may be at least 90%.
For nanoparticle compositions including an RNA, a QUANT-IT™ RIBOGREEN® RNA assay (Invitrogen Corporation Carlsbad, CA) can be used to evaluate the encapsulation of an RNA by the nanoparticle composition. The samples are diluted to a concentration of approximately […] in a TE buffer solution (10 mM Tris-HCl, 1 mM EDTA, pH 7.5). 50 μL of the diluted samples are transferred to a polystyrene 96 well plate and either 50 μL of TE buffer or 50 μL of a 2% Triton X-100 solution is added to the wells. The plate is incubated at a temperature of 37° C. for 15 minutes. The RIBOGREEN® reagent is diluted 1:100 in TE buffer, and 100 μL of this solution is added to each well. The fluorescence intensity can be measured using a fluorescence plate reader (Wallac Victor 1420 Multilablel Counter; Perkin Elmer, Waltham, MA) at an excitation wavelength of, for example, about 480 nm and an emission wavelength of, for example, about 520 nm. The fluorescence values of the reagent blank are subtracted from that of each of the samples and the percentage of free RNA is determined by dividing the fluorescence intensity of the intact sample (without addition of Triton X-100) by the fluorescence value of the disrupted sample (caused by the addition of Triton X-100).
Initial studies were performed to compare the delivery efficiency of nanoparticle compositions including various compounds according to Formula (I), (IA), (II), (IIa), (IIb), (IIc), (IId) or (IIe). The cationic lipid MC3 is a current standard in the art. Accordingly, the standard MC3 formulation including about 50 mol % MC3, about 10 mol % DSPC, about 38.5 mol % cholesterol, and about 1.5 mol % PEG-DMG was used as a basis for this study. Nanoparticle compositions including DSPC as a phospholipid, cholesterol as a structural lipid, PEG-DMG as a PEG lipid, an RNA, and a compound according to Formula (I), (IA), (II), (IIa), (IIb), (IIc), (IId) or (IIe) selected from Compounds 1-159, 168-170, and 173-175 were prepared according to or via methods similar to those described in Examples 1 and 2. The ratios of the lipids were 50:10:38.5:1.5 mol % for the lipid according to Formula (I), (IA), (II), (IIa), (IIb), (IIc), (IId) or (IIe):DSPC:cholesterol:PEG-DMG. The RNA used was an mRNA encoding G5 luciferase (Luc) or G5 hEPO. Tables 1A-1B summarize the content and characteristics of the formulations. […]

[3] = hEPO mRNA, lipid:DSPC:Chol:PEG-DMG (50:10:38.5:1.5) (Table 10)
[4] = mRNA encoding anti-HA antibody (Table 33)
[5] = nanoparticle composition 50:10:38.5:1.5 mol % (Table 1A)
[6] = nanoparticle composition lipid:DSPC:cholesterol:PEG-DMG 50:10:38.5:1.5 mol %, mRNA encoding Luc or hEPO (Table 1A)
[7] = hEPO mRNA, (50:10:38.5:1.5) (Table 10)
[8] = formulated with hEPO mRNA (Table 1B)

| Compound | AUC (Cynomolgus monkeys; dose 0.1 mpk) [µg·h/mL] | AUC (Cynomolgus monkeys; dose 0.3 mpk) [µg·h/mL] | Size (nm) [1, 3] [nm] | Diameter (nm) [1, 4] [nm] | PDI [1, 5] | Size (nm) [1, 6] [nm] | EE (%) [2, 7] [%] | EE (%) [2, 4] [%] | Size (nm) [1, 8] [nm] | EE (%) [2, 8] [%] | EE (%) [2, 5] [%] |
| --- | --- | --- | --- | --- | --- | --- | --- | --- | --- | --- | --- |
| CCCCCCCCCOC(=O)CCCCCCCN(CCO)CCCCCCCC(=O)OC(CCCCCCCC)CCCCCCCC [Compound 18, Heptadecan-9-yl 8-((2-hydroxyethyl)(8-(nonyloxy)-8-oxooctyl)amino)octanoate] | 354.3 | 1055 | 78.6 | 76.8 | 0.042 | 86.2 | 97.34 | 79.3 |  |  |  |
| CCCCCC=CCC=CCCCCCCCCC(CCCCCCCCC=CCC=CCCCCC)OC(=O)CCCN(C)C (stereo not shown) [MC3, heptatriaconta-6,9,28,31-tetraen-19-yl 4-(dimethylamino)butanoate, reference compound] | 77.05 | 235.7 | 73.7 |  |  | 79.7 | 97.22 |  | 57.7 | 99.01 | 97.3 |
